# According to patent publication US4291175A, “1-Hydroxymethyl-11-deoxy-15-hydroxy-prosten-1-ol-derivatives” (American Cyanamid Company, priority 1980, dated 1981):
# Experiments:
# Format in all cases: in vivo
# Conditions in all cases: Konzett data
# [1] = tested on: 5-HT; test: Konzett test, 5-HT (bronchodilator activity)
# [2] = tested on: Hist; test: Konzett test, Hist (bronchodilator activity)
# [3] = tested on: Ach; test: Konzett test, Ach (bronchodilator activity)
smiles,measurement,setting,value
"CCCCCC(C)(O)/C=C/C1C(O)CC(=O)C1C/C=C\CCCCO (racemic) [dl-1,11,15-trihydroxymethyl-9-oxo-15-methyl-5-cis-13-trans prostadiene]",5-HT (ED50 g/kg),[1],0.0083 g/kg
same,Hist (ED50 g/kg),[2],0.00075 g/kg
same,Ach (ED50 g/kg),[3],0.0043 g/kg
